In PubChem BioAssay AID1918993 (Molecular Pharmacology Branch, DTP, NCI, 2023):

Test system: 233499-124-R-J3-PDC complex spheroid growth
Assay: Anticancer human tumor 233499-124-R-J3-PDC patient-derived colon adenocarcinoma cell line growth inhibition [AhR]
Conditions: for IC50: curve of first compound; for viability, T/C: stronger effect = lower value; active means viability on the fitted dose curve at most 10% of control; inactive means the rest
Outline: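 Spheroids combined tumor cells with HUVEC endothelial cells and human MSCs as stroma. AhR antagonists were paired with standard or investigational drugs, each dosed in half-log steps down from near clinical Cmax, or from 10 microM where Cmax was unknown.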

[1] = second compound 0.1 µM, first compound 0.0316 µM
[2] = second compound 0.1 µM, first compound 0.1 µM
[3] = second compound 0.1 µM, first compound 0.316 µM
[4] = second compound 0.1 µM, first compound 1 µM
[5] = second compound 0.1 µM, first compound 3.16 µM
[6] = second compound 0.1 µM, first compound 10 µM
[7] = second compound 0.316 µM, first compound 0.0316 µM
[8] = second compound 0.316 µM, first compound 0.1 µM
[9] = second compound 0.316 µM, first compound 0.316 µM
[10] = second compound 0.316 µM, first compound 1 µM
[11] = second compound 0.316 µM, first compound 3.16 µM
[12] = second compound 0.316 µM, first compound 10 µM
[13] = second compound 1 µM, first compound 0.0316 µM
[14] = second compound 1 µM, first compound 0.1 µM
[15] = second compound 1 µM, first compound 0.316 µM
[16] = second compound 1 µM, first compound 1 µM
[17] = second compound 1 µM, first compound 3.16 µM
[18] = second compound 1 µM, first compound 10 µM
[19] = second compound 3.16 µM, first compound 0.0316 µM
[20] = second compound 3.16 µM, first compound 0.1 µM
[21] = second compound 3.16 µM, first compound 0.316 µM
[22] = second compound 3.16 µM, first compound 1 µM
[23] = second compound 3.16 µM, first compound 3.16 µM
[24] = second compound 3.16 µM, first compound 10 µM
[25] = second compound 10 µM, first compound 0.0316 µM
[26] = second compound 10 µM, first compound 0.1 µM
[27] = second compound 10 µM, first compound 0.316 µM
[28] = second compound 10 µM, first compound 1 µM
[29] = second compound 10 µM, first compound 3.16 µM
[30] = second compound 10 µM, first compound 10 µM
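Further: spheroids exposed to agents for seven days before reading.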

CC1(C)CCC(CN2CCN(c3ccc(C(=O)NS(=O)(=O)c4ccc(NCC5CCOCC5)c([N+](=O)[O-])c4)c(Oc4cnc5[nH]ccc5c4)c3)CC2)=C(c2ccc(Cl)cc2)C1 + CC(CO)NC(=O)c1cc(-c2ccc(Cl)cc2)nn(-c2cnn(C)c2)c1=O
6.62 µM: IC50 (second compound 3.16 µM)
6.78 µM: IC50 (second compound 1 µM)
7.05 µM: IC50 (second compound 0.316 µM)
6.82 µM: IC50 (second compound 0.1 µM)
6.5 µM: IC50 (second compound 10 µM)
inactive: viability, T/C [1] 99.8% | viability, T/C [2] 89.7% | viability, T/C [3] 97.5% | viability, T/C [4] 102% | viability, T/C [5] 108% | viability, T/C [6] 25.3% | viability, T/C [7] 94.5% | viability, T/C [8] 91.2% | viability, T/C [9] 91.1% | viability, T/C [10] 90.7% | viability, T/C [11] 109% | viability, T/C [12] 30.4% | viability, T/C [13] 97.4% | viability, T/C [14] 96.5% | viability, T/C [15] 90.7% | viability, T/C [16] 104% | viability, T/C [17] 103% | viability, T/C [18] 25.5% | viability, T/C [19] 97.5% | viability, T/C [20] 92.1% | viability, T/C [21] 94.5% | viability, T/C [22] 106% | viability, T/C [23] 96.8% | viability, T/C [24] 23.8% | viability, T/C [25] 79.2% | viability, T/C [26] 89.5% | viability, T/C [27] 86.8% | viability, T/C [28] 90.9% | viability, T/C [29] 92.9% | viability, T/C [30] 27.4%

COc1cc(Nc2ncc3c(n2)-c2ccc(Cl)cc2C(c2c(F)cccc2OC)=NC3)ccc1C(=O)O + CC(CO)NC(=O)c1cc(-c2ccc(Cl)cc2)nn(-c2cnn(C)c2)c1=O
inactive: viability, T/C [1] 75.4% | viability, T/C [2] 74.5% | viability, T/C [3] 81% | viability, T/C [4] 91.4% | viability, T/C [5] 84.6% | viability, T/C [6] 82.9% | viability, T/C [7] 75.6% | viability, T/C [8] 73.6% | viability, T/C [9] 86.3% | viability, T/C [10] 77.2% | viability, T/C [11] 62.8% | viability, T/C [12] 94% | viability, T/C [13] 78.7% | viability, T/C [14] 76.9% | viability, T/C [15] 96% | viability, T/C [16] 72.5% | viability, T/C [17] 87.7% | viability, T/C [18] 74% | viability, T/C [19] 57.9% | viability, T/C [20] 67.4% | viability, T/C [21] 86.3% | viability, T/C [22] 89.1% | viability, T/C [23] 84.7% | viability, T/C [24] 84.9% | viability, T/C [25] 58.8% | viability, T/C [26] 62.8% | viability, T/C [27] 73.8% | viability, T/C [28] 65.4% | viability, T/C [29] 57.9% | viability, T/C [30] 59.2%
> 10 µM: IC50 (second compound 0.1 µM) | IC50 (second compound 0.316 µM) | IC50 (second compound 1 µM) | IC50 (second compound 3.16 µM) | IC50 (second compound 10 µM)

Cn1ncnc1C1c2n[nH]c(=O)c3cc(F)cc(c23)NC1c1ccc(F)cc1 (stereo not given) + CC(CO)NC(=O)c1cc(-c2ccc(Cl)cc2)nn(-c2cnn(C)c2)c1=O
> 0.1 µM: IC50 (second compound 0.1 µM) | IC50 (second compound 0.316 µM) | IC50 (second compound 1 µM) | IC50 (second compound 3.16 µM) | IC50 (second compound 10 µM)
inactive: viability, T/C (second compound 0.1 µM, first compound 0.000316 µM) 97.1% | viability, T/C (second compound 0.1 µM, first compound 0.001 µM) 102% | viability, T/C (second compound 0.1 µM, first compound 0.00316 µM) 101% | viability, T/C (second compound 0.1 µM, first compound 0.01 µM) 106% | viability, T/C [1] 86.7% | viability, T/C [2] 104% | viability, T/C (second compound 0.316 µM, first compound 0.000316 µM) 90.6% | viability, T/C (second compound 0.316 µM, first compound 0.001 µM) 104% | viability, T/C (second compound 0.316 µM, first compound 0.00316 µM) 88.6% | viability, T/C (second compound 0.316 µM, first compound 0.01 µM) 92.6% | viability, T/C [7] 108% | viability, T/C [8] 87.5% | viability, T/C (second compound 1 µM, first compound 0.000316 µM) 93.6% | viability, T/C (second compound 1 µM, first compound 0.001 µM) 103% | viability, T/C (second compound 1 µM, first compound 0.00316 µM) 92.2% | viability, T/C (second compound 1 µM, first compound 0.01 µM) 109% | viability, T/C [13] 77.6% | viability, T/C [14] 101% | viability, T/C (second compound 3.16 µM, first compound 0.000316 µM) 97% | viability, T/C (second compound 3.16 µM, first compound 0.001 µM) 103% | viability, T/C (second compound 3.16 µM, first compound 0.00316 µM) 87.9% | viability, T/C (second compound 3.16 µM, first compound 0.01 µM) 98.9% | viability, T/C [19] 91.2% | viability, T/C [20] 87.6% | viability, T/C (second compound 10 µM, first compound 0.000316 µM) 83.2% | viability, T/C (second compound 10 µM, first compound 0.001 µM) 80.8% | viability, T/C (second compound 10 µM, first compound 0.00316 µM) 90.2% | viability, T/C (second compound 10 µM, first compound 0.01 µM) 83% | viability, T/C [25] 87% | viability, T/C [26] 78.7%

NS(=O)(=O)OCC1CC(n2ccc3c(NC4CCc5ccccc54)ncnc32)CC1O (stereo not given) + CC(CO)NC(=O)c1cc(-c2ccc(Cl)cc2)nn(-c2cnn(C)c2)c1=O
0.112 µM: IC50 (second compound 10 µM)
0.196 µM: IC50 (second compound 0.316 µM)
inactive: viability, T/C [1] 100% | viability, T/C [2] 81.9% | viability, T/C [3] 38.2% | viability, T/C [7] 101% | viability, T/C [8] 76.1% | viability, T/C [9] 32.2% | viability, T/C [13] 97.3% | viability, T/C [14] 83.6% | viability, T/C [15] 32.7% | viability, T/C [19] 97.8% | viability, T/C [20] 85.1% | viability, T/C [21] 23.9% | viability, T/C [25] 89.6% | viability, T/C [26] 54% | viability, T/C [27] 12.6%
active: viability, T/C [4] 6.95% | viability, T/C [5] 3.58% | viability, T/C [6] 2.89% | viability, T/C [10] 4.48% | viability, T/C [11] 2.85% | viability, T/C [12] 1.79% | viability, T/C [16] 7.56% | viability, T/C [17] 2.89% | viability, T/C [18] 2.21% | viability, T/C [22] 7.17% | viability, T/C [23] 4.49% | viability, T/C [24] 4.6% | viability, T/C [28] 4.19% | viability, T/C [29] 4.04% | viability, T/C [30] 2.93%
0.194 µM: IC50 (second compound 3.16 µM)
0.229 µM: IC50 (second compound 0.1 µM)
0.214 µM: IC50 (second compound 1 µM)

O=C(C=Cc1cccc(S(=O)(=O)Nc2ccccc2)c1)NO + CC(CO)NC(=O)c1cc(-c2ccc(Cl)cc2)nn(-c2cnn(C)c2)c1=O
active: viability, T/C [6] 6.36% | viability, T/C [12] 4.58% | viability, T/C [18] 3.72% | viability, T/C [24] 2.7% | viability, T/C [30] 3.22%
3.07 µM: IC50 (second compound 3.16 µM)
2.91 µM: IC50 (second compound 0.316 µM)
inactive: viability, T/C [1] 98% | viability, T/C [2] 108% | viability, T/C [3] 111% | viability, T/C [4] 115% | viability, T/C [5] 89% | viability, T/C [7] 99.5% | viability, T/C [8] 93% | viability, T/C [9] 98.2% | viability, T/C [10] 96.6% | viability, T/C [11] 46.3% | viability, T/C [13] 97.6% | viability, T/C [14] 94.3% | viability, T/C [15] 110% | viability, T/C [16] 112% | viability, T/C [17] 84.1% | viability, T/C [19] 94.4% | viability, T/C [20] 87.6% | viability, T/C [21] 117% | viability, T/C [22] 108% | viability, T/C [23] 48.7% | viability, T/C [25] 93.9% | viability, T/C [26] 73.9% | viability, T/C [27] 90.9% | viability, T/C [28] 119% | viability, T/C [29] 54.9%
5.44 µM: IC50 (second compound 0.1 µM)
5.15 µM: IC50 (second compound 1 µM)
3.52 µM: IC50 (second compound 10 µM)
